Data on 23 molecules can be found in patent US20240409536A1, “COMPOUNDS AND METHODS FOR MODULATING SPLICING” (REMIX THERAPEUTICS INC., priority 2021, published 2024).

Structures can show the parent of a compound that is named as a salt.

The subject of the experiment is MYB mRNA. The experiment in a line: Gene panel canonical junction qPCR assay, MYB CJ mRNA decrease. In kind it is cell-based, human. The note with it: Homo sapiens, canonical junction qPCR, read-out: MYB IC50 (decrease in CJ mRNA levels). The method in brief: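 IC50 values describe loss of canonical-junction transcript, fitted by 4-parameter logistic to percent response derived from fixed ΔCt windows. Read-out: RT-qPCR on lysates of compound-treated K562 or A673 cells, probes overlapping the exon junction, ΔΔCt versus housekeeping gene and DMSO control.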
`Cc1cn2cc(NC(=O)c3ccc(N4C[C@@H](C)N[C@@H](C)C4)c4nccnc34)cc(F)c2n1` [Compound 186, 8-(3,5-dimethylpiperazin-1-yl)-N-{8-fluoro-2-methylimidazo[1,2-a]pyridin-6-yl}quinoxaline-5-carboxamide]: the IC50 (in general, the concentration needed to halve the response being measured) is under 100 nM.
`Cc1cn2cc(NC(=O)c3ccc(N4CCN[C@@H](C)C4)c4nccnc34)cc(F)c2n1` [Compound 187, N-{8-fluoro-2-methylimidazo[1,2-a]pyridin-6-yl}-8-(3-methylpiperazin-1-yl) quinoxaline-5-carboxamide]: the IC50 was under 100 nM.
As for `Cc1cn2cc(NC(=O)c3ccc(N4CCC5(CCN5)CC4)c4nccnc34)cc(F)c2n1` [Compound 189, 8-{1,7-diazaspiro[3.5]nonan-7-yl}-N-{8-fluoro-2-methylimidazo[1,2-a]pyridin-6-yl}quinoxaline-5-carboxamide], the figure is under 100 nM; as for `CNC1CCN(c2ccc(C(=O)Nc3cc(F)c4nc(C)cn4c3)c3nccnc23)C1` (centres unmarked) [Compound 190, N-{8-fluoro-2-methylimidazo[1,2-a]pyridin-6-yl}-8-[3-(methylamino)pyrrolidin-1-yl]quinoxaline-5-carboxamide], 100 to 1000 nM.
With `CCNC1CCN(c2ccc(C(=O)Nc3cc(F)c4nc(C)cn4c3)c3nccnc23)CC1` [Compound 191, 8-[4-(ethylamino)piperidin-1-yl]-N-{8-fluoro-2-methylimidazo[1,2-a]pyridin-6-yl}quinoxaline-5-carboxamide], the IC50 is under 100 nM.
As for `CNCC1CCN(c2ccc(C(=O)Nc3cc(F)c4nc(C)cn4c3)c3nccnc23)CC1` [Compound 192, N-{8-fluoro-2-methylimidazo[1,2-a]pyridin-6-yl}-8-{4-[(methylamino)methyl]piperidin-1-yl}quinoxaline-5-carboxamide trifluoroacetate], the figure is 1000 to 10000 nM.
As for `CNC1CCN(c2ccc(C(=O)Nc3cc(F)c4nc(C)cn4c3)c3nc(C)ccc23)C1` (centres unmarked) [Compound 196, N-{8-fluoro-2-methylimidazo[1,2-a]pyridin-6-yl}-2-methyl-5-[3-(methylamino)pyrrolidin-1-yl]quinoline-8-carboxamide 2,2,2-trifluoroacetate], the figure is 100 to 1000 nM; as for `Cc1cnc2c(N3CCNCC3)ccc(C(=O)Nc3cc(F)c4nc(C)cn4c3)c2n1` [Compound 197, N-{8-fluoro-2-methylimidazo[1,2-a]pyridin-6-yl}-3-methyl-8-(piperazin-1-yl)quinoxaline-5-carboxamide; trifluoroacetic acid], 100 to 1000 nM.
To `COCCOc1cc2c(N3CCNCC3)ccc(C(=O)Nc3cc(F)c4nc(C)cn4c3)c2nn1` [Compound 199, N-{8-fluoro-2-methylimidazo[1,2-a]pyridin-6-yl}-3-(2-methoxyethoxy)-5-(piperazin-1-yl)cinnoline-8-carboxamide] belongs 100 to 1000 nM; to `Cc1cnc2c(N3CCC(N(C)C)CC3)ccc(C(=O)Nc3cc(F)c4nc(C)cn4c3)c2n1` [Compound 200, 8-[4-(dimethylamino)piperidin-1-yl]-N-{8-fluoro-2-methylimidazo[1,2-a]pyridin-6-yl}-3-methylquinoxaline-5-carboxamide], under 100 nM; to `CN[C@@H]1CCN(c2ccc(C(=O)Nc3cc(F)c4nc(C)cn4c3)c3nc(OC)cnc23)C1` [Compound 204, (R)—N-{8-fluoro-2-methylimidazo[1,2-a]pyridin-6-yl}-3-methoxy-8-[3-(methylamino)pyrrolidin-1-yl]quinoxaline-5-carboxamide; trifluoroacetic acid], 1000 to 10000 nM.
Turning to `COc1cnc2c(N3C[C@@H](C)N[C@@H](C)C3)ccc(C(=O)Nc3cc(F)c4nc(C)cn4c3)c2n1` [Compound 205, 8-[(3R,5S)-3,5-dimethylpiperazin-1-yl]-N-{8-fluoro-2-methylimidazo[1,2-a]pyridin-6-yl}-3-methoxyquinoxaline-5-carboxamide; trifluoroacetic acid], the IC50 is under 100 nM.
As for `COc1cnc2c(N3CCC(N(C)C)CC3)ccc(C(=O)Nc3cc(F)c4nc(C)cn4c3)c2n1` [Compound 206, 8-[4-(dimethylamino)piperidin-1-yl]-N-{8-fluoro-2-methylimidazo[1,2-a]pyridin-6-yl}-3-methoxyquinoxaline-5-carboxamide; trifluoroacetic acid], the figure is 100 to 1000 nM.
As for `COc1cnc2c(N3CCNCC3)ccc(C(=O)Nc3cc(F)c4nc(C)cn4c3)c2n1` [Compound 207, N-{8-fluoro-2-methylimidazo[1,2-a]pyridin-6-yl}-3-methoxy-8-(piperazin-1-yl)quinoxaline-5-carboxamide; bis(trifluoroacetic acid)], the figure is under 100 nM.
As for `Cc1cnc2c(C(=O)Nc3cc(F)c4nc(C)cn4c3)ccc(N3CCC(N(C)C)CC3)c2n1` [Compound 208, 8-[4-(dimethylamino)piperidin-1-yl]-N-{8-fluoro-2-methylimidazo[1,2-a]pyridin-6-yl}-2-methylquinoxaline-5-carboxamide; bis(trifluoroacetic acid)], the IC50 is under 100 nM.
As for `Cc1ccc2c(N3C[C@@H](C)N[C@@H](C)C3)ccc(C(=O)Nc3cc(F)c4nc(C)cn4c3)c2n1` [Compound 214, 5-[(3R,5S)-3,5-dimethylpiperazin-1-yl]-N-{8-fluoro-2-methylimidazo[1,2-a]pyridin-6-yl}-2-methylquinoline-8-carboxamide], the figure is under 100 nM.
`Cc1ccc2c(N3CCC(N(C)C)CC3)ccc(C(=O)Nc3cc(F)c4nc(C)cn4c3)c2n1` [Compound 215, 5-[4-(dimethylamino)piperidin-1-yl]-N-{8-fluoro-2-methylimidazo[1,2-a]pyridin-6-yl}-2-methylquinoline-8-carboxamide]: the IC50 is 100 to 1000 nM.
As for `Cc1cnc2c(N3C[C@@H](C)N[C@@H](C)C3)ccc(C(=O)Nc3cc(F)c4nc(C)cn4c3)c2n1` [Compound 216, 8-((3R,5S)-3,5-dimethylpiperazin-1-yl)-N-{8-fluoro-2-methylimidazo[1,2-a]pyridin-6-yl}-3-methylquinoxaline-5-carboxamide], the figure is 100 to 1000 nM.
To `Cc1cn2cc(NC(=O)c3ccc(N4CCNC5(CC5)C4)c4nccnc34)cc(F)c2n1` [Compound 218, 8-{4,7-diazaspiro[2.5]octan-7-yl}-N-{8-fluoro-2-methylimidazo[1,2-a]pyridin-6-yl}quinoxaline-5-carboxamide] belongs under 100 nM.
To `Cc1cn2cc(NC(=O)c3ccc(N4CC(C)(C)NC(C)(C)C4)c4nccnc34)cc(F)c2n1` [Compound 219, N-{8-fluoro-2-methylimidazo[1,2-a]pyridin-6-yl}-8-(3,3,5,5-tetramethylpiperazin-1-yl)quinoxaline-5-carboxamide] belongs under 100 nM; to `Cc1cn2cc(NC(=O)c3ccc(N4CCNC(C)(C)C4)c4nccnc34)cc(F)c2n1` [Compound 220, 8-(3,3-dimethylpiperazin-1-yl)-N-{8-fluoro-2-methylimidazo[1,2-a]pyridin-6-yl}quinoxaline-5-carboxamide], under 100 nM; to `CCNC1CCN(c2ccc(C(=O)Nc3cc(F)c4nc(C)sc4c3)c3nnccc23)CC1` [Compound 221, 5-[4-(ethylamino)piperidin-1-yl]-N-(4-fluoro-2-methyl-1,3-benzothiazol-6-yl)cinnoline-8-carboxamide], 1000 to 10000 nM.
Take `COc1cnc2c(C(=O)Nc3cc(F)c4nc(C)cn4c3)ccc(N3C[C@@H](C)N[C@@H](C)C3)c2n1` [Compound 223]: the IC50 was under 100 nM.
